Reference: patent US20150315202A1, “CHLORIN DERIVATIVE USEFUL IN PHOTODYNAMIC THERAPY AND DIAGNOSIS” (RMW CHO GROUP LIMITED, priority 2012, published 2015)
Entries after “also recorded” stand apart in the source; their conditions may differ.

Columns and labels:
[1] = system: brain cancer with metastases in the lung and lymph nodes; test: In vivo studies Example 12: patient, oral chlorin e4 sodium plus laser and LED light; parameters: species or system human; conditions: after two courses
Experimental: A patient with brain cancer with metastases in the lung and lymph nodes, was treated successfully. […] The patient experienced occasional epileptic seizures and severe headaches. The treatment consisted of two courses. For each course, five doses of 62.5-187.5 mg chlorin e4 sodium were administered orally over the course of eight days. 24-48 hours after each oral dose of chlorin e4 sodium, the patient was treated with laser and LED light having a wavelength of 660 nm and 760 nm.

[2] = system: advanced pancreatic cancer with metastases in the liver; test: In vivo studies Example 7: patient, oral chlorin e4 sodium plus laser and LED light; parameters: species or system human
Experimental: A patient with advanced pancreatic cancer with metastases in the liver, was treated successfully. Prior to treatment the patient was in poor health generally and suffering from extreme weight loss, pain and other typical symptoms of advanced pancreatic cancer. The treatment consisted of three courses. For each course, five doses of 62.5-187.5 mg chlorin e4 sodium were administered orally over the course of eight days. About 24 hours after each oral dose of chlorin e4 sodium, the patient was treated with laser and LED light having a wavelength of 660 nm and 760 nm.

[3] = system: advanced non-small cell lung cancer; test: Clinical study with patients suffering from advanced non-small cell lung cancer; format: in vivo, human
Experimental: Through pathology or cytology diagnosis, 66 advanced non-small cell lung cancer patients were selected and randomly divided into two groups. Group A had 32 patients who were treated with chlorin e4 sodium. Group B had 34 patients who were treated with both chemotherapy and radiotherapy.
For group A, chlorin e4 sodium was administered at a dosage of 2 mg per kilogram of body weight, with two thirds administered by inhalation and one third administered orally. After the irradiation target(s) had been determined, an optical fibre for laser treatment purposes was guided into the lung tumor(s) via an interstitial procedure. Irradiation light intensity was 200 J/cm^2, irradiation power was 1,000 mW, and irradiation lasted for eight to ten minutes. Laser irradiation into the tumor was two to five centimeters in depth. Irradiation was either performed phase by phase (sub-paragraph treatment) based on tumor size or performed repeatedly.
For group B, for the radiotherapy, a 15 MV X-ray radiation therapy irradiation field covered primary lung tumor lesion(s) and mediastinal lymphatic drainage area, with a dosage of 65-70 Gy, administered on every first day in a week of radiotherapy. For the chemotherapy, 20 mg cisplatin was administered by intravenous application.

[4] = system: S180 sarcoma; test: Photodynamic therapy study with mice with subcutaneous S180 sarcoma; format: in vivo, Kunming mice
Experimental: In this experiment the effects of photodynamic therapy mediated by three different photosensitizers, namely Duteroporphyrin, chlorin e4 sodium and 5-ALA, on mouse S180 sarcoma were observed. Duteroporphyrin and 5-ALA are porphyrin derivatives.
40 Kunming mice with well grown subcutaneous S180 sarcoma were randomly divided into four groups: (A) Duteroporphyrin group (10 mg/kg), (B) chlorin e4 sodium group (20 mg/kg), (C) 5-ALA group (100 mg/kg) and (D) blank control group. The mice in groups A and B were subjected to irradiation 8-10 hours after tail vein injection of the photo sensitizers, while the mice in group C were subjected to irradiation 3 hours after tail vein injection of the photosensitizer. A laser with a wavelength of 630 nm was used for groups A and C, while a duel-frequency laser with wavelengths of 660 nm and 760 nm was used for group B. The local tumour sites were irradiated vertically, with the diameter of the laser spots being 1.2-1.5 cm. The whole tumour and 3-5 mm of normal tissue around the tumour were covered by the laser. The lasers were applied to groups A, B and C for 20 minutes, with a power density of 150 mW/cm^2 and an energy density of 180 J/cm^2. The mice in control group D were not subjected to irradiation.

[5] = system: non-small cell lung cancer with metastases in the lymph nodes and bones; test: In vivo studies Example 8: patient, oral chlorin e4 sodium plus laser and LED light; parameters: species or system human
Experimental: A patient with non-small cell lung cancer with metastases in the lymph nodes and bones, was treated successfully. The treatment consisted of two courses. For each course, five doses of 62.5-187.5 mg chlorin e4 sodium were administered orally over the course of eight days. About 24 hours after each oral dose of chlorin e4 sodium, the patient was treated with laser and LED light having a wavelength of 660 nm and 760 nm.

[6] = Fluorescence spectra and fluorescence quantum yield (reference TPPS); format: physicochemical
Experimental: Absorption spectra were recorded using computerized spectrophotometers Hitachi 3400 (Japan) and SF-2000 (Russia). Fluorescence spectra were measured with a computerized spectrofluorimeter Perkin-Elmer MPF-44B. 10 mm wide quartz cuvettes were used for absorption and fluorescence measurements. Fluorescence was detected at a right angle to the excitation beam. The spectral bandwidth of the monochromator was 3 nm. […] The fluorescence quantum yields (ΦF) were determined using as a reference, solutions of TPPS (m-tetrakis(p-sulfonatophenyl)porphine) in ethanol. According to the literature, the most likely fluorescence quantum yield of TPPS in air-saturated water and ethanol is equal to 0.08 (K. Kalyanasundaram and M. Neumann-Spallart, Photophysical and redox properties of water soluble porphyrins in aqueous media, J. Phys. Chem., 1982, 86, 5163-5169; and A. T. Gradyushko, A. N. Sevchenko, K. N. Solovyov and M. P. Tsvirko, Energetics of photophysical processes in chlorophyll-like molecules, Photochem. Photobiol., 1970, 11, 387-400). The fluorescence of the samples was excited by the monochromatic light corresponding to the maximum of the Soret bands: 415 nm for TPPS in ethanol and 413 nm for TPPS in water, and 403 nm for chlorin e4 sodium in water and ethanol. The monochromator bandwidth was 3 nm. The fluorescence quantum yields (ΦF) were calculated using the following equation: […]
where (ΦTPP is the quantum yield of TPPS fluorescence, Sc is the square under the fluorescence spectrum of the chlorin e4 sodium sample, STPP is the square under the fluorescence spectrum of TPPS, and Dc and DTPP are absorbance (optical density) of the chlorin e4 sodium and TPPS respectively at the excitation wavelengths. The obtained results were collated using relative units of intensity of the excited light at the excitation wavelengths. The intensities of the monochromatic light were measured using a calibrated silicon detector from Optical Power Meter System ThorLabs (Karlsfeld, Germany).

[7] = group A (32 patients): chlorin e4 sodium 2 mg/kg inhalation and oral + interstitial laser, group B (34 patients): cisplatin 20 mg iv + radiotherapy
[8] = 21 days after the treatments, P<0.05

SMILES: C=Cc1c(C)c2cc3nc(c(C)c4[nH]c(cc5nc(cc1[nH]2)C(C)=C5CC)c(C)c4C(=O)O)[C@@H](CCC(=O)O)[C@@H]3C [chlorin e4 sodium]
- Lymph nodes (PET/CT) [1]: not yet clear
- Metabolic activity in the area of the brain tumour (PET/CT) [1]: no metabolic activity
- Response in the lungs (PET/CT) [1]: complete response
- Response in the pancreatic area (PET/CT) ([2]; before and after three courses): improvements and a good treatment response
- Pain ([2]; three courses): suffered less pain
- Photosensitive reaction ([2]; three courses): no photosensitive reaction
- One year survival rate [3, 7]: 93.75%
- Two years survival rate [3, 7]: 68.75%
- Combined complete and partial remission rate ([3]; group A: chlorin e4 sodium 2 mg/kg + interstitial laser, group B: cisplatin 20 mg iv + radiotherapy): 56.20%
- Pathological changes of tumour tissues (HE staining) ([4]; 24 hours after the treatment): a wide range of tumour necrosis, tumour vascular disruption and neutrophil infiltration
- Living tumour cells versus control group D (FCM) ([4]; 24 hours after treatments): obviously fewer
- Proportions of apoptotic and necrotic tumour cells versus control group D (FCM) ([4]; 24 hours after treatments): a lot higher
- Mean tumour volume versus control group D [4, 8]: statistically significantly smaller
- Mean tumour volume, group B versus group C (5-ALA) [4, 8]: statistically significantly smaller in group B than group C
- Tumour appearance after treatment (eschars) ([4]; after treatments): Black eschars
- Recovery of skins and fur ([4]; mouse, in vivo): fully recovered
- Sizes of tumours versus control group D ([4]; six days after the treatments): no obvious difference
- Therapeutic effect compared with 5-ALA ([4]; summary of study, P<0.05): statistically significantly better therapeutic effect
- Tumour inhibition rate ([4]; tail vein: Duteroporphyrin 10 mg/kg, chlorin e4 sodium 20 mg/kg, 5-ALA 100 mg/kg, laser 20 minutes, 180 J/cm^2): 75.4%
- Patient status ([5]; 10 months after starting, seven months after completion of treatment): alive and well
- Response of the lungs (PET/CT) ([5]; before and after two courses): many tumours disappearing and the remaining tumours showing no or low metabolic activity
- Side effects ([5]; two courses): no side effects
- Fluorescence quantum yield (ranking among solvents) ([6]; SDS containing water): slightly less
- Fluorescence quantum yield (ranking among solvents) ([6]; ethanol): highest
- Fluorescence quantum yield (ranking among solvents) ([6]; water without SDS): smallest; also recorded: still high
